According to patent publication US8293266B2, “Paromomycin-supplemented feed stuff for turkey and use thereof for prophylaxis of histomoniasis, reduction of the horizontal spreading of histomoniasis, and for improved weight gain and feed conversion” (Huvepharma AD, priority 2007, dated 2012):
“Also recorded” adds a separate entry of the source.

How the values were obtained:
histomoniasis [1] = conditions: use through the whole growth cycle; cited from earlier work
[2] = test system: Histomonas meleagridis strain HNA.CO.A.L1; experiment: Example 1: turkeys inoculated intracloacally with Histomonas meleagridis, mortality and lesions; type: in vivo, turkey; conditions: low dose (500 ppm), mortality
[3] = test system: Histomonas meleagridis strain HNA.CO. A.L1; experiment: Example 2: intracloacal Histomonas meleagridis challenge, seeder and contact birds, mortality and lesions; type: in vivo, turkey; conditions: lowest dose (250 ppm paromomycin sulphate), seeder birds mortality
histomoniasis [4] = conditions: 200 and 400 ppm in broilers; cited from earlier work
histomoniasis [5] = conditions: cited from earlier work

## N#CC(c1ccc(Cl)cc1)c1c(Cl)cc(-n2ncc(=O)[nH]c2=O)cc1Cl (stereo not drawn) [diclasuril]
Histomoniasis [1]
  effect with respect to histomoniasis: no effect

## CC[C@@]1([C@@H]2O[C@@H]([C@H]3O[C@@](O)(CO)[C@H](C)C[C@@H]3C)C[C@@H]2C)CC[C@H]([C@]2(C)CC[C@]3(C[C@H](O)[C@@H](C)[C@@H]([C@@H](C)[C@@H](OC)[C@H](C)C(=O)O)O3)O2)O1 [monensin]
Histomoniasis [1]
  effect with respect to histomoniasis: no effect

## NC[C@@H]1O[C@H](O[C@H]2[C@@H](O)[C@H](O[C@@H]3[C@@H](O)[C@H](N)C[C@H](N)[C@H]3O[C@H]3O[C@H](CO)[C@@H](O)[C@H](O)[C@H]3N)O[C@@H]2CO)[C@H](N)[C@@H](O)[C@@H]1O [paromomycin]
[2]
  protection compared to the infected untreated group: significant protection
[3]
  protection to infection: significant protection
Histomoniasis [4]
  effect on mortality and lesion scoring: no effect on both mortality and lesion scoring
  use in-vivo as chemotherapeutic agent in broiler chickens: ineffective
Histomoniasis [5]; 1000-2000 ppm in feed (dosage exceeding 1000 ppm)
  side effects due to the use of paromomycin: certain toxicity effects; also recorded: lesions and hypertrophy of the liver
Histomoniasis [5]; fed continuously at 1000-2000 ppm in feed
  mortality of infected birds: reduced the mortality of infected birds

## CC[C@@H](C(=O)[C@@H](C)[C@@H](O)[C@H](C)[C@@H]1O[C@@H]([C@@H](CC)C(=O)O)CC[C@@H]1C)[C@H]1O[C@]2(C=C[C@@H](O)[C@]3(CC[C@@](C)([C@H]4CC[C@](O)(CC)[C@H](C)O4)O3)O2)[C@H](C)C[C@@H]1C [salinomycin]
Histomoniasis [1]
  effect with respect to histomoniasis: no effect
